According to patent US11524955B2, “2,4-diamino-pyrimidine compounds and method for making and using the compounds” (Rigel Pharmaceuticals, Inc., priority 2016, dated 2022):
Like-named read-outs stand apart in the source and are kept apart here.

Assays:
IL-23, dendritic cells = test: IL-23 assay, human primary monocyte-derived dendritic cells, LPS stimulated, ELISA; type: cell-based; settings: Dendritic cell, LPS stimulated, 10 pt, read-out: IL23-P19, ELISA, Dendritic, LPS, 10 pt
Experimental: (§1) IL-23 assays: THP1 cells or human primary monocyte-derived dendritic cells (DC) were primed overnight with IFNg. Following one hour preincubation with compound, cells were stimulated overnight with LPS. IL-23 released into the media was quantitated by ELISA.

IL-23, THP1 cells = test: IL-23 assay, THP1 cells primed with IFNg, LPS stimulated, ELISA; type: cell-based; settings: Homo sapiens, THP-1
Experimental: as §1

IRAK4 = molecular target: T1, IRAK4 (Homo sapiens, UniProt Q9NWZ3); test: IRAK4 biochemical assay, ADP-Glo kinase assay; settings: for Selectivity (TAK1/IRAK4): ratio of TAK1 and IRAK4 IC50
T1 sequence (Q9NWZ3 1-460): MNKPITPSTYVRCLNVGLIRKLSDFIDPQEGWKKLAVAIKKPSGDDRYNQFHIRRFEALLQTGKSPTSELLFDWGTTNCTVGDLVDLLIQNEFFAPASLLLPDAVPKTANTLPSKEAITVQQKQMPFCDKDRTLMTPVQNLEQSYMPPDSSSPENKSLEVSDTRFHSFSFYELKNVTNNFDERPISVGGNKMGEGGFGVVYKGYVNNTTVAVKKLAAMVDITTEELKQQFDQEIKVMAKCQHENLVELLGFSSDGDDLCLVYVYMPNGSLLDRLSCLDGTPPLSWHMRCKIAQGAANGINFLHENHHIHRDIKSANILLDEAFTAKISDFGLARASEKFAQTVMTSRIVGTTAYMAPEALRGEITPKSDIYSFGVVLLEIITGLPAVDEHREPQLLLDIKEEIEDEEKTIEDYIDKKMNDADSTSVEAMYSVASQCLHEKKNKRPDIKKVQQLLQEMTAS
Experimental: (§2) IRAK4 and TAK1 biochemical assays: kinase activity was measured by ADP-Glo kinase assay (Promega).

TAK1 = molecular target: T2, TAK1 (Homo sapiens, UniProt O43318); test: TAK1 biochemical assay, ADP-Glo kinase assay
T2 sequence (O43318 1-303 limits assumed): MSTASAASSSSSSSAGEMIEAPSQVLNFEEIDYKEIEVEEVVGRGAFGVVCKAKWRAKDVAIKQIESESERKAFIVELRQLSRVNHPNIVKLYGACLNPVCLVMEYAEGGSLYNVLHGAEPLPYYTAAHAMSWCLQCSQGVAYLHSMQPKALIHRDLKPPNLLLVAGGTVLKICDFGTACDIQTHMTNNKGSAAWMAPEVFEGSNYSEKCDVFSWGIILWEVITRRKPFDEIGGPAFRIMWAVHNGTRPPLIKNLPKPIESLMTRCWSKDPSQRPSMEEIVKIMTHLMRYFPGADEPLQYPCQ
Experimental: as §2

[1] = THP1 cells, IFNy primed, LPS stimulated, 10 pt, read-out: IL23-p19 ELISA, THP1-IFNy, LPS, 10 pt
[2] = read-out: IL23 (LPS induced) IC50

Structure (SMILES)	IC50 (IL-23, dendritic cells) [µM]	IC50 (IL-23, THP1 cells; [1]) [µM]	IC50 (IRAK4) [µM]	IC50 (TAK1) [µM]	IC50 (IL-23, THP1 cells; [2]) [µM]	IRAK4/TAK1 selectivity (IRAK4)	Selectivity (TAK1/IRAK4) (IRAK4)
Cc1cc(Nc2ncc(-c3cccnc3)c(NC3C4C=CC(C4)C3C(N)=O)n2)ccc1OCCN1CCCC1 (stereo not drawn) [Compound 1, 3-((2-((3-methyl-4-(2-(pyrrolidin-1-yl)ethoxy)phenyl)amino)-5-(pyridin-3-yl)pyrimidin-4-yl)amino)bicyclo[2.2.1] hept-5-ene-2-carboxamide]	< 0.25	< 0.1	–	–	–	–	–
NC(=O)[C@@H]1[C@H](Nc2nc(Nc3ccc(OCCN4CCCC4)cc3)ncc2-c2cccnc2)[C@H]2C=C[C@@H]1C2 [Compound 2]	–	< 1	–	–	–	–	–
CS(=O)(=O)N1CCN(c2ccc(Nc3ncc(-c4cccnc4)c(N[C@@H]4C5C=CC(C5)[C@@H]4C(N)=O)n3)cc2F)CC1 (stereo partly drawn) [Compound 3, (2S,3R)-3-((2-((3-fluoro-4-(4-(methylsulfonyl)piperazin-1-yl)phenyl)amino)-5-(pyridin-3-yl)pyrimidin-4-yl)amino)bicyclo[2.2.1] hept-5-ene-2-carboxamide]	–	< 1	–	–	–	–	–
NC(=O)[C@@H]1[C@H](Nc2nc(Nc3cccc(C(=O)N4CCCC4)c3)ncc2-c2cccnc2)[C@H]2C=C[C@@H]1C2 [Compound 4, (1S,2S,3R,4R)-3-((5-(pyridin-3-yl)-2-((3-(pyrrolidine-1-carbonyl)phenyl)amino)pyrimidin-4-yl)amino)bicyclo[2.2.1] hept-5-ene-2-carboxamide]	–	< 1	0.01	0.229	0.32	–	–
Cc1cnc(Nc2cccc(C(=O)N3CCCC3)c2)nc1N[C@H]1[C@@H](C(N)=O)[C@@H]2C=C[C@H]1C2 [Compound 5, (1S,2S,3R,4R)-3-((5-methyl-2-((3-(pyrrolidine-1-carbonyl)phenyl)amino)pyrimidin-4-yl)amino)bicyclo[2.2.1] hept-5-ene-2-carboxamide]	–	< 0.1	0.003	0.008	0.1	–	–
NC(=O)[C@@H]1[C@H](Nc2nc(Nc3cccc(C(=O)N4CCCC4)c3)ncc2C2CC2)[C@H]2C=C[C@@H]1C2 [Compound 6, (1S,2S,3R,4R)-3-((5-cyclopropyl-2-((3-(pyrrolidine-1-carbonyl)phenyl)amino)pyrimidin-4-yl)amino)bicyclo[2.2.1] hept-5-ene-2-carboxamide]	< 0.1	< 0.1	0.006	0.011	0.09	–	–
NC(=O)[C@@H]1[C@H](Nc2nc(Nc3cccc(C(=O)N4CCCC4)c3)ncc2-c2ccccc2F)[C@H]2C=C[C@@H]1C2 [Compound 10, (1S,2S,3R,4R)-3-((5-(2-fluorophenyl)-2-((3-(pyrrolidine-1-carbonyl)phenyl)amino)pyrimidin-4-yl)amino)bicyclo[2.2.1] hept-5-ene-2-carboxamide]	–	< 1	0.011	4.8	0.87	434	434
N#Cc1cccc(-c2cnc(Nc3cccc(C(=O)N4CCCC4)c3)nc2N[C@@H]2CCCC[C@@H]2C(N)=O)c1 [Compound 17, (1S,2R)-2-((5-(3-cyanophenyl)-2-((3-(pyrrolidine-1-carbonyl)phenyl)amino)pyrimidin-4-yl)amino)cyclohexane-1-carboxamide]	–	< 1	0.03	0.067	0.9	–	2
N#Cc1cccc(-c2cnc(Nc3cccc(C(=O)N4CCCC4)c3)nc2N[C@H]2[C@@H](C#N)[C@@H]3C=C[C@H]2C3)c1 [Compound 18, (1S,2S,3R,4R)-3-((5-(3-cyanophenyl)-2-((3-(pyrrolidine-1-carbonyl)phenyl)amino)pyrimidin-4-yl)amino)bicyclo[2.2.1] hept-5-ene-2-carbonitrile]	–	> 1	3.7	132	3.4	–	36
